Source: US20260092061A1, “COMPOUNDS FOR TARGETED PROTEIN DEGRADATION” (Amphista Therapeutics Limited, priority 2022, published 2026)

Experiments:
BRD9 [1] = target: T1, BRD9 (Homo sapiens, UniProt Q9H8M2); experiment: BRD9 degradation, HiBiT-BRD9 KI HEK293 (LgBiT) cells, NanoGlo Lytic Endpoint assay (Assay Protocol 1); format: cell-based; settings: BRD9 degradation; for Dmax at 1 µM: 1 μM compound at 6 h of treatment, read-out: Assay 1 Dmax
T1 sequence (Q9H8M2 1-597): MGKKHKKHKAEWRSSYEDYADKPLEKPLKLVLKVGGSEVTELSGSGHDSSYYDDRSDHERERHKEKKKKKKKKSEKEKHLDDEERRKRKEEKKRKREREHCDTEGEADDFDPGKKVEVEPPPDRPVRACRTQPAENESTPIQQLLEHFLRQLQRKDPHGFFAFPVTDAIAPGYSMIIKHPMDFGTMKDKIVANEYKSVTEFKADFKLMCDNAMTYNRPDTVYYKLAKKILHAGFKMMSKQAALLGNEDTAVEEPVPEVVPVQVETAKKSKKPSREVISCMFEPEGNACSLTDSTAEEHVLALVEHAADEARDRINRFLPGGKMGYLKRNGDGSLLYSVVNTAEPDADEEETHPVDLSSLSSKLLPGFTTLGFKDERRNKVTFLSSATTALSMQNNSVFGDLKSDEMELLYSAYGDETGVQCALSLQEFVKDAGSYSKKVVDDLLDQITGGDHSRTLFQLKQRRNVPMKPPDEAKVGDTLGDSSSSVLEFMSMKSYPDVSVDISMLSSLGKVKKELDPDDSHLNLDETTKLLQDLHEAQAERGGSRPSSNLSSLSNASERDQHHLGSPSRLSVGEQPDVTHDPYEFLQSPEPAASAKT
Method in brief: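 HiBiT-tagged BRD9 knock-in HEK293 (LgBiT) cells exposed to compounds for 6 h at 37 °C, 5% CO2. Residual BRD9 measured by HiBiT lytic luminescence. % BRD9 remaining normalised to DMSO-treated cells (high) and no-cell wells (low).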

BRD9 [2] = target: T1, BRD9; experiment: Degradation of BRD9 (IF), immunofluorescence in MV4-11 cells, 24 hours (Assay Protocol 2); format: cell-based; design: A suspension of MV4-11 cells (ATCC CRL-9591) was prepared; host or cells: MV4-11
Method in brief: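 % BRD9 remaining, scaled between DMSO (high) and 100 nM CFT-8634 (low) control wells, derives from mean Alexa 647 contrast in central nuclei by high-content imaging. MV4-11 cells had 24 h compound exposure at 37° C. before PFA fixation, Triton permeabilisation and anti-BRD9 E4Q3F immunostaining.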

[3] = MV4-11, Table 4, BRD9 degradation, determined according to Assay Protocol 2, read-out: Dmax^2
[4] = Table 4, BRD9 degradation, determined according to Assay Protocol 2, read-out: DC50^2
[5] = HEK293, Table 2, Assay Protocol 1
[6] = Table 2, Assay Protocol 1, 6 h of treatment, read-out: Assay 1 DC50
[7] = MV4-11, 24 h, Table 2, BRD9 degradation (IF), Assay Protocol 2, MV4-11 cells, read-out: Assay 2 DCmax
[8] = Table 2, BRD9 degradation (IF), Assay Protocol 2, MV4-11 cells, read-out: Assay 2 DC50

COc1cc(-c2cn(C)c(=O)c(C)c2C)cc(OC)c1C(=O)N1CC2CC1CN2C(=O)/C(C#N)=C/C(C)(C)C (mixture of isomers) [BRD9t, (E/Z)-2-(5-(2,6-dimethoxy-4-(1,4,5-trimethyl-6-oxo-1,6-dihydropyridin-3-yl)benzoyl)-2,6-diazabicyclo[2.2.1]heptane-2-carbonyl)-4,4-dimethylpent-2-enenitrile]
Dmax (BRD9 [1]; HEK293, Table 4, determined according to Assay Protocol 1, read-out: Dmax^1): > 70%
Dmax (BRD9 [2]; [3]): > 70%
DC50 (BRD9 [2]; [4]): > 200 nM

COc1cc(-c2cn(C)c(=O)c(C)c2C)cc(OC)c1CN1CC2CC1CN2C(=O)/C(C#N)=C/c1cccc(C(F)(F)F)n1 (mixture of isomers) [BRD9x, (E/Z)-2-(5-(2,6-dimethoxy-4-(1,4,5-trimethyl-6-oxo-1,6-dihydropyridin-3-yl)benzyl)-2,5-diazabicyclo[2.2.1]heptane-2-carbonyl)-3-(6-(trifluoromethyl)pyridin-2-yl)acrylonitrile]
DC50 (BRD9 [1]; Table 4, determined according to Assay Protocol 1, read-out: DC50^1): < 25 nM
Dmax (BRD9 [2]; [3]): > 70%
DC50 (BRD9 [2]; [4]): < 25 nM

COc1cc(-c2cn(C)c(=O)c3cnccc23)cc(OC)c1CN1CCN(Cc2cccc3c2CCN(C(=O)/C(C#N)=C/c2nccs2)C3C)CC1 (mixture of isomers) [Compound A2, (E/Z)-2-(5-((4-(2,6-dimethoxy-4-(2-methyl-1-oxo-1,2-dihydro-2,7-naphthyridin-4-yl)benzyl)piperazin-1-yl)methyl)-1-methyl-1,2,3,4-tetrahydroisoquinoline-2-carbonyl)-3-(thiazol-2-yl)acrylonitrile]
Dmax at 1 µM (BRD9 [1]; [5]): 40 to 70%
DC50 (BRD9 [1]; [6]): < 1.25 nM
Dmax (BRD9 [2]; [7]): 40 to 70%
DC50 (BRD9 [2]; [8]): < 1.25 nM

COc1cc(-c2cn(C)c(=O)c3cnccc23)cc(OC)c1CN1CCN(Cc2cccc3c2CCN(C(=O)/C(C#N)=C/C(C)(C)C)C3C)CC1 (mixture of isomers) [Compound A3]
Dmax at 1 µM (BRD9 [1]; [5]): 40 to 70%
DC50 (BRD9 [1]; [6]): 1.25 to 10 nM
Dmax (BRD9 [2]; [7]): 40 to 70%
DC50 (BRD9 [2]; [8]): 1.25 to 10 nM

COc1cc(-c2cn(C)c(=O)c(C)c2C)cc(OC)c1CN1CCN(Cc2cccc3c2CCN(C(=O)/C(C#N)=C/C(C)(C)C)C3C)CC1 (mixture of isomers) [Compound A7, (E/Z)-2-(5-((4-(2,6-dimethoxy-4-(1,4,5-trimethyl-6-oxo-1,6-dihydropyridin-3-yl)benzyl)piperazin-1-yl)methyl)-1-methyl-1,2,3,4-tetrahydroisoquinoline-2-carbonyl)-4,4-dimethylpent-2-enenitrile]
Dmax at 1 µM (BRD9 [1]; [5]): 40 to 70%
DC50 (BRD9 [1]; [6]): 1.25 to 10 nM
Dmax (BRD9 [2]; [7]): 40 to 70%
DC50 (BRD9 [2]; [8]): 10 to 25 nM

COc1cc(-c2cn(C)c(=O)c3cnccc23)cc(OC)c1CN1CCN(Cc2cccc3c2CCN(C(=O)/C(C#N)=C\C2(F)CC2)C3C)CC1 (mixture of isomers) [Compound A22, (E/Z)-2-(5-((4-(2,6-dimethoxy-4-(2-methyl-1-oxo-1,2-dihydro-2,7-naphthyridin-4-yl)benzyl)piperazin-1-yl)methyl)-1-methyl-1,2,3,4-tetrahydroisoquinoline-2-carbonyl)-3-(1-fluorocyclopropyl)acrylonitrile]
Dmax at 1 µM (BRD9 [1]; [5]): > 75%
DC50 (BRD9 [1]; [6]): 1.25 to 10 nM
Dmax (BRD9 [2]; [7]): > 75%
DC50 (BRD9 [2]; [8]): < 1.25 nM

COc1cc(-c2cn(C)c(=O)c3cnccc23)cc(OC)c1CN1CCN(Cc2cccc3c2CCN(C(=O)/C(C#N)=C/C2(C)CC2)C3C)CC1 (mixture of isomers) [Compound A26, (E/Z)-2-(5-((4-(2,6-dimethoxy-4-(2-methyl-1-oxo-1,2-dihydro-2,7-naphthyridin-4-yl)benzyl)piperazin-1-yl)methyl)-1-methyl-1,2,3,4-tetrahydroisoquinoline-2-carbonyl)-3-(1-methylcyclopropyl)acrylonitrile]
Dmax at 1 µM (BRD9 [1]; [5]): 40 to 70%
DC50 (BRD9 [1]; [6]): 1.25 to 10 nM
Dmax (BRD9 [2]; [7]): 40 to 70%
DC50 (BRD9 [2]; [8]): 25 to 300 nM

COc1cc(-c2cn(C)c(=O)c3cnccc23)cc(OC)c1CN1CCN(Cc2cccc3c2CCN(C(=O)/C(C#N)=C/C2(C)COC2)C3C)CC1 (mixture of isomers) [Compound A27, (E/Z)-2-(5-((4-(2,6-dimethoxy-4-(2-methyl-1-oxo-1,2-dihydro-2,7-naphthyridin-4-yl)benzyl)piperazin-1-yl)methyl)-1-methyl-1,2,3,4-tetrahydroisoquinoline-2-carbonyl)-3-(3-methyloxetan-3-yl)acrylonitrile]
Dmax at 1 µM (BRD9 [1]; [5]): 40 to 70%
DC50 (BRD9 [1]; [6]): 1.25 to 10 nM
Dmax (BRD9 [2]; [7]): 40 to 70%
DC50 (BRD9 [2]; [8]): 1.25 to 10 nM

COc1cc(-c2cn(C)c(=O)c3cnccc23)cc(OC)c1CN1CCC(Oc2cccc3c2CCN(C(=O)/C(C#N)=C/C(C)(C)C)C3C)CC1 (mixture of isomers) [Compound A28, (E/Z)-2-(5-((1-(2,6-dimethoxy-4-(2-methyl-1-oxo-1,2-dihydro-2,7-naphthyridin-4-yl)benzyl)piperidin-4-yl)oxy)-1-methyl-1,2,3,4-tetrahydroisoquinoline-2-carbonyl)-4,4-dimethylpent-2-enenitrile]
Dmax at 1 µM (BRD9 [1]; [5]): 40 to 70%
DC50 (BRD9 [1]; [6]): 1.25 to 10 nM
Dmax (BRD9 [2]; [7]): 40 to 70%

COc1cc(-c2cn(C)c(=O)c3cnccc23)cc(OC)c1CN1CCCN(Cc2cccc3c2CCN(C(=O)/C(C#N)=C/C(C)(C)C)C3C)CC1 (mixture of isomers) [Compound A31, (E/Z)-2-(5-((4-(2,6-dimethoxy-4-(2-methyl-1-oxo-1,2-dihydro-2,7-naphthyridin-4-yl)benzyl)-1,4-diazepan-1-yl)methyl)-1-methyl-1,2,3,4-tetrahydroisoquinoline-2-carbonyl)-4,4-dimethylpent-2-enenitrile]
Dmax at 1 µM (BRD9 [1]; [5]): 70 to 75%
DC50 (BRD9 [1]; [6]): 1.25 to 10 nM
Dmax (BRD9 [2]; [7]): 40 to 70%
DC50 (BRD9 [2]; [8]): 1.25 to 10 nM

COc1cc(-c2cn(C)c(=O)c3cnccc23)cc(OC)c1CN(C)CCN(C)Cc1cccc2c1CCN(C(=O)/C(C#N)=C/C(C)(C)C)C2C (mixture of isomers) [Compound A32, (E/Z)-2-(5-(((2-((2,6-dimethoxy-4-(2-methyl-1-oxo-1,2-dihydro-2,7-naphthyridin-4-yl)benzyl)(methyl)amino)ethyl)(methyl)amino)methyl)-1-methyl-1,2,3,4-tetrahydroisoquinoline-2-carbonyl)-4,4-dimethylpent-2-enenitrile]
Dmax at 1 µM (BRD9 [1]; [5]): 40 to 70%
DC50 (BRD9 [1]; [6]): 10 to 25 nM
Dmax (BRD9 [2]; [7]): 40 to 70%
DC50 (BRD9 [2]; [8]): < 1.25 nM

COc1cc(-c2cn(C)c(=O)c3cnccc23)cc(OC)c1CN1CC2CC(C1)N2Cc1cccc2c1CCN(C(=O)/C(C#N)=C/C(C)(C)C)C2C (mixture of isomers) [Compound A41, (E/Z)-2-(5-((3-(2,6-dimethoxy-4-(2-methyl-1-oxo-1,2-dihydro-2,7-naphthyridin-4-yl)benzyl)-3,6-diazabicyclo[3.1.1]heptan-6-yl)methyl)-1-methyl-1,2,3,4-tetrahydroisoquinoline-2-carbonyl)-4,4-dimethylpent-2-enenitrile]
Dmax at 1 µM (BRD9 [1]; [5]): 70 to 75%
DC50 (BRD9 [1]; read-out: Assay 1 DC50, Table 2, Assay Protocol 1, 6 h of treatment): 1.25 to 10 nM
Dmax (BRD9 [2]; 24 h, Table 2, BRD9 degradation (IF), Assay Protocol 2, MV4-11 cells, read-out: Assay 2 DCmax): 70 to 75%
DC50 (BRD9 [2]; [8]): 1.25 to 10 nM

COc1cc(-c2cn(C)c(=O)c3cnccc23)cc(OC)c1CN1CCN(Cc2cccc3c2CCN(C(=O)/C(C#N)=C/c2ncccc2F)C3C)CC1 (mixture of isomers) [Compound A42, (E/Z)-2-[5-[[4-[[2,6-dimethoxy-4-(2-methyl-1-oxo-2,7-naphthyridin-4-yl)phenyl]methyl]piperazin-1-yl]methyl]-1-methyl-3,4-dihydro-1H-isoquinoline-2-carbonyl]-3-(3-fluoro-2-pyridyl)prop-2-enenitrile]
Dmax at 1 µM (BRD9 [1]; [5]): 40 to 70%
DC50 (BRD9 [1]; [6]): 10 to 25 nM
Dmax (BRD9 [2]; [7]): 40 to 70%
DC50 (BRD9 [2]; [8]): < 1.25 nM

COc1cc(-c2cn(C)c(=O)c(C)c2C)cc(OC)c1CN1CCN(Cc2cccc3c2CCN(C(=O)/C(C#N)=C/C(C)C)C3C)CC1 (mixture of isomers) [Compound A43]
Dmax at 1 µM (BRD9 [1]; [5]): 70 to 75%
DC50 (BRD9 [1]; [6]): 1.25 to 10 nM
Dmax (BRD9 [2]; [7]): 40 to 70%
DC50 (BRD9 [2]; [8]): < 1.25 nM
